Measured values from patent US20210282401A1, “FUNGICIDAL COMPOUNDS AND MIXTURES FOR FUNGAL CONTROL IN CEREALS” (Dow AgroSciences LLC, priority 2016, published 2021).

Assays:
Assay type in all cases: in vivo
[1] = system: Puccinia striiformis (PUCCST); assay: Field assessment of yellow rust of wheat (PUCCST), relative AUDPC, 2 field trials; conditions: based on AUDPC
Description: (§1) Treatments consisting of the compound of Formula I and the fungicide picoxystrobin were applied either using individually or as a two-way mixture with the compound of Formula I. The compound of Formula I was applied with Agnique BP-420 (50% w/w at 0.3% v/v) at 75 and 150 g ai/ha and picoxystrobin (Acanto) was applied at 125 and 200 g ai/ha. The commercial standard used in the studies was Fluxapyroxad (Imtrex) and was applied at 100 g ai/ha.
Field Assessment of Puccinia striiformis (PUCCST) in Wheat:
Fungicidal treatments containing the compound of Formula I and picoxystrobin, either individually or as a two way mixture, were assessed against yellow rust of wheat (PUCCST) in two separate field trials. […]
Disease severity (percentage of visual diseased foliage on whole plot or leaves) in both field trials was assessed at 4-7 weeks after application and was recorded following EPPO PP1/26 guideline prescriptions. Area under the disease progress curve (AUDPC) was calculated for each plot in both trials using the sets of recorded severity data. Relative AUDPC (% control based on AUDPC) was calculated as percent of the nontreated control. Final results for the control of yellow rust of wheat by the compound of Formula I, picoxystrobin, and mixtures are reported as an average of the relative AUDPC calculated over both field trials. […]

[2] = system: Puccinia recondita (PUCCRT); assay: Field assessment of brown rust of wheat (PUCCRT), relative AUDPC, 2 field trials; conditions: based on AUDPC
Description: as §1
Field Assessment of Puccinia recondita (PUCCRT) in Wheat:
Fungicidal treatment containing the compound of Formula I and picoxystrobin, either individually or as a two mixture, were assessed against brown rust of wheat (PUCCRT) in two separate field trials. In the first trial, fungicidal treatments were applied at B37-39 (protectant, approximately 0% infection at application) growth stage of wheat (TRZAW, MV Vanek variety) under natural infection of brown rust. The treatment was part of an experimental trial designed as a randomized complete block with four replications and a plot of approximately 2×3 m. Fungicidal treatments were applied at a water volume of 200 L/ha, using a backpack plot sprayer with a TEEJET QJ90-2XTT110 015 Nozzle.
In the second trial, fungicidal treatments containing the compound of Formula I and picoxystrobin, either individually or as a two way mixture, were applied at B33 (curative, approximately 6.6% infection at application) growth stage of wheat (TRZAW, Miradoux variety) under natural infection of brown rust. The treatments were part of an experimental trial designed as a randomized complete block with four replications and a plot of approximately 2×3 m. Fungicidal treatments were applied at a water volume of 200 L/ha, using a backpack plot sprayer with a HARDI MD110-02 Nozzle.
Disease severity (percentage of visual diseased foliage on whole plot or leaves) in both field trials was assessed at 5 weeks after application and was recorded following EPPO PP1/26 guideline prescriptions. Area under the disease progress curve (AUDPC) was calculated for each plot in both trials using the sets of recorded severity data. Relative AUDPC (% control based on AUDPC) was calculated as percent of the nontreated control. Final results for the control of brown rust of wheat by the compound of Formula I, picoxystrobin, and mixtures are reported as an average of the relative AUDPC calculated over both field trials. Statistical analysis was done according to ANOVA and Tukey's test (p=0.10).

[3] = system: Rhynchosporium secalis (RHYNSE); assay: Field assessment of scald of barley (RHYNSE), trials 2 and 3, relative AUDPC; conditions: Trial 2, 3, based on AUDPC
Description: (§2) Field Assessment of Mixtures of the Compound of Formula I and Pyraclostrobin on Rhynchosporium secalis (RHYNSE) in Barley:
In the remaining trials, treatments consisting of the compound of Formula I and the fungicide pyraclostrobin were applied either using individually or as a two-way mixture with the compound of Formula I. […] Commercial standards used in these studies were SiltraXpro (200 g ai/L prothioconazole+60 g ai/ha bixafen) applied at 260 g ai/ha, and Opera (133 g/L pyraclostrobin+50 g/L epoxiconazole) applied at 220 g ai/ha. All treatments were part of an experimental trial designed as a randomized complete block with four replications.
(§3) Disease severity (percentage of visual diseased foliage on whole plot or leaves) in both trials was recorded following EPPO PP1/26 guideline prescriptions. Area under the disease progress curve (AUDPC) was calculated for each plot in both trials using the sets of recorded severity data. Relative AUDPC (% control based on AUDPC) was calculated as percent of the nontreated control. Final results for the control of scald of barley by the compound of Formula I, pyraclostrobin and mixtures are reported as an average of the relative AUDPC calculated over both field trials. Statistical analysis was done according to ANOVA and Tukey's test (p=0.10).

Puccinia hordei (PUCCHD) = assay: Field assessment of rust of barley (PUCCHD), relative AUDPC, 2 field trials; conditions: based on AUDPC
Description: Treatments consisting of the compound of Formula I and the fungicide pyraclostrobin were applied either using individually or as a two-way mixture with the compound of Formula I. The compound of Formula I was applied with Agnique BP-420 (50% w/w at an active:adjuvant ratio of 1:2) at 75, 100 and 150 g ai/ha and with pyraclostrobin (Comet 200) at 100, 150 and 200 g ai/ha. Commercial standards used in these studies were Proline 275 (275 g ai/L Prothioconazole), applied at 150 g ai/ha, and SiltraXpro (200 g ai/L prothioconazole+60 g ai/ha bixafen), applied at 195 g ai/ha.
Field Assessment of Mixtures of the Compound of Formula I and Pyraclostrobin on Puccinia Hordie (PUCCHD) in Barley: […]
Fungicidal treatments containing the compound of Formula I and pyraclostrobin, either individually or as a two-way mixture, were assessed against rust of barley (PUCCHD) in two separate field trials. In both trials, fungicidal treatments were applied at B37-39 growth stages of winter barley (Lomeritt variety) under natural infection of barley rust. All treatments were part of an experimental trial designed as a randomized complete block with four replications.
as §3, with “in both field trials was” for “in both trials was”, “control of rust of barley” for “control of scald of barley”

[4] = system: Pyrenophora teres (PYRNTE); assay: Field assessment of net blotch of barley (PYRNTE), relative AUDPC; conditions: based on AUDPC
Description: (§4) Commercial standards used in these studies were Proline 275 (275 g ai/L Prothioconazole), applied at 150 g ai/ha, and SiltraXpro (200 g ai/L prothioconazole+60 g ai/ha bixafen), applied at 195 g ai/ha.
Field Assessment of Mixtures of the Compound of Formula I and Pyraclostrobin on Pyrenophora teres (PYRNTE) in Barley:
[…] […], fungicidal treatments were applied at B31-37 growth stages of winter barley and sprong barley (HORVW, Lomeritt variety; HORVS, Scarlett variety) under natural infection of net blotch (protectant tests, 1% infection on leaf 4 and 10% infection on leaf 6 at application). All treatments were part of an experimental trial designed as a randomized complete block with four replications.
[…] […] Relative AUDPC (% control based on AUDPC) was calculated as percent of the nontreated control. […] Statistical analysis was done according to ANOVA and Tukey's test (p=0.10).

[5] = system: Rhynchosporium secalis (RHYNSE); assay: Field assessment of scald of barley (RHYNSE), trial 1, relative AUDPC; conditions: Trial 1, based on AUDPC
Method: as §4, §2
Fungicidal treatments containing the compound of Formula I and fluxapyroxad, either individually or as a two-way mixture, were assessed against scald of barley (RHYNSE) in three field trials. In the first trial, fungicidal treatments were applied at B37-39 growth stages of winter barley (HORVW, Maris Otter variety) under natural infection of barley scald (protectant test, approximately 1% infection on leaf 4 at application). All treatments were part of an experimental trial designed as a randomized complete block with four replications.
Disease severity (percentage of visual diseased foliage on whole plot or leaves) in the first trial was recorded following EPPO PP1/26 guideline prescriptions. Area under the disease progress curve (AUDPC) was calculated for each plot in the trial using the sets of recorded severity data. Relative AUDPC (% control based on AUDPC) was calculated as percent of the nontreated control. […] Statistical analysis was done according to ANOVA and Tukey's test (p=0.10).

CO/C=C(/C(=O)OC)c1ccccc1COc1cccc(C(F)(F)F)n1 [Picoxystrobin, methyl (E)-3-methoxy-2-[2-(6-trifluoromethyl-2-pyridyloxymethyl)phenyl]acrylate]
PUCCST % Control ([1]; 125 g ai/ha): 34.6%
PUCCST % Control ([1]; 200 g ai/ha): 43.2%
PUCCRT % Control ([2]; 125 g ai/ha): 64.6%
PUCCRT % Control ([2]; 200 g ai/ha): 81.1%

N#Cc1ccc(Oc2ccc(C(F)(F)C(O)(Cn3ncnc3S)c3ccc(F)cc3F)nc2)cc1 (stereo not drawn) [Compound I, 4-((6-(2-(2,4-difluorophenyl)-1,1-difluoro-2-hydroxy-3-(5-mercapto-1H-1,2,4-triazol-1-yl)propyl)pyridin-3-yl)oxy)benzonitrile]
RHYNSE % Control ([3]; 80 g ai/ha): 15.6%
RHYNSE % Control ([3]; 125 g ai/ha): 38.6%
PUCCRT % Control ([2]; 75 g ai/ha): 90.7%
PUCCRT % Control ([2]; 150 g ai/ha): 91.4%

COC(=O)N(OC)c1ccccc1COc1ccn(-c2ccc(Cl)cc2)n1 [Pyraclostrobin, methyl N-[2-[[[1-(4-chlorophenyl)-1H-pyrazol-3-yl]oxy]methyl]phenyl]-N-methoxycarbamate]
RHYNSE % Control ([3]; 200 g ai/ha): 43.0%
PUCCHD % Control (Puccinia hordei (PUCCHD); 100 g ai/ha): 63.3%
PUCCHD % Control (Puccinia hordei (PUCCHD); 150 g ai/ha): 64.4%
PUCCHD % Control (Puccinia hordei (PUCCHD); 200 g ai/ha): 78.7%
PYRNTE % Control ([4]; 100 g ai/ha): 46.5%
PYRNTE % Control ([4]; 150 g ai/ha): 60.5%
PYRNTE % Control ([4]; 200 g ai/ha): 69.8%
RHYNSE % Control ([5]; 100 g ai/ha): 41.2%
RHYNSE % Control ([5]; 150 g ai/ha): 45.0%
RHYNSE % Control ([5]; 200 g ai/ha): 47.8%
